Reference: patent publication US20260335288A1, “Pharmacologic Targeting of Genetic Factors That Control Jet Lag” (University of Pittsburgh-Of the Commonwealth System of …, priority 2022, published 2026)

Columns and labels:
[1] = tested on: human pulmonary artery endothelial cells (PAECs); test: Caspase-Glo 3/7 apoptosis assay in human pulmonary artery endothelial cells; format: cell-based; conditions: compound 173 treatment, 5 mM (so in the source), FIG. 5 panels A & D
Method: (§1) Cell Culture. Primary human pulmonary artery endothelial cells (HPAECs) or mouse fibroblasts harboring a luciferase reporter under the control of a Period 2 (PER2) promoter (MF-Luc) were seeded into tissue culture dishes (Perkin Elmer) in a humidified incubator at 37 °C and 5% CO2. For knockdown experiments, cells were pre-treated with 20 nM “Silencer Select” scrambled silencing RNA (siNC) or with antisense targeting of Np/(siNPL) for 48 hours (ThermoFisher). For chemical treatments, cells were treated with vehicle (DMSO) or 5 mM 173.
Apoptosis. Apoptosis was measured using the Caspase-Glo 3/7 Assay System (Promega) according to the manufacturer's instructions.

MF-Luc cells = test: Lumicycle recording of circadian period in MF-Luc cells (PER2 promoter luciferase reporter); format: cell-based, mouse; conditions: compound 173 treatment, 5 mM (so in the source), recorded 7 days, FIG. 4 and FIG. 5 panels C & F
Method: as §1
Lumicycle Recording. Prior to circadian measurement, cells were synchronized with […] forskolin (Sigma) in Dulbecco's Modified Eagle Medium (DMEM) supplemented with 0.1% fetal bovine serum, and 100 mM Beetle luciferin (Promega) luciferase substrate was added for bioluminescent recording. Culture dishes were then sealed with sterile vacuum grease and placed in the Lumicycle 96 (Actimetrics) in a dehumidified incubator at 37 °C. Luminescence was recorded continuously for 7 days, and the initial 12 hours of data was omitted from the analysis to allow time for cell synchronization. […] Period was calculated as 2p/w. Period was analyzed if the R^2 was greater than 0.8.

[2] = tested on: human pulmonary artery endothelial cells (PAECs); test: BrdU cell proliferation assay in human pulmonary artery endothelial cells; format: cell-based; conditions: compound 173 treatment, 5 mM (so in the source), FIG. 5 panels B & E
Method: as §1
Cell Proliferation. Cell proliferation was measured using the BrdU Cell Proliferation Assay Kit (Cell Signaling Technologies) according to the manufacturer's instructions.

SMILES: Cc1ccc(-c2n[nH]c3c2C2(C(=O)N(C)c4ccccc42)N(C)C3=O)c(O)c1 (stereo not shown) [Compound 173]
- Apoptosis [1]: increased
- Circadian period length (MF-Luc cells): decreased
- Circadian period length (MF-Luc cells; listed as compound 173): significantly decreased
- Proliferation [2]: decreased
